Data published in publication PMC7962536, “Isolation, Characterization, and Medicinal Potential of Polysaccharides of Morchella esculenta” (Molecules, 2021).
In brackets after ≈: the same amount, converted by molar mass.

Molecular target: T1, tyrosinase enzyme from mushrooms
T1 construct: gene PPO1; native mushroom tyrosinase preparation
Test: spectrophotometric L-DOPA oxidation, […] nm
Format: biochemical
Settings: L-DOPA as substrate, sodium phosphate buffer pH 6.8, 37 °C, 10 min preincubation; unreliable: extrapolated below the lowest listed concentration 12.5 µg/mL

In the case of `O=c1cc(CO)occ1O` [kojic acid], the IC50 is reported as 8.25 ± 0.36 µg/mL (≈ 58.1 µM).
